Results published in ChEMBL document CHEMBL3785091, “Discovery of AZD8165 a clinical candidate from a novel series of neutral thrombin inhibitors” (Medchemcomm, 2016).
In brackets after ≈: the same amount, converted by molar mass.

What was measured:
[1] = Bioavailability in Sprague-Dawley rat; type: ADME, organism-based; details: in vivo
[2] = Kinetic solubility of compound in HBSS-MES buffer at 5 to 10 mM at pH 6.8 by LC-UV/MS analysis; type: physicochemical; details: read-out: Kinetic_solubility
[3] = Drug excretion in rat bile assessed as (5S)-N-[5-Chloro-2-(1H-tetrazol-1-yl)benzyl]-1-[(2R)-2-(4-fluorophenyl)-2-hydroxyacetyl]-4,5-dihydro-1H-pyrazole-5-carboxamide level; type: ADME, tissue-based; details: in vivo
[4] = Drug excretion in dog urine assessed as compound unchanged; type: ADME, tissue-based, Canis lupus familiaris; details: read-out: Drug excretion
Rattus norvegicus [5] = organism: Rattus norvegicus; assay: Cardiotoxicity in rat by electrophysiology assay relative to control; type: toxicity, organism-based; details: in vivo
Rattus norvegicus [6] = organism: Rattus norvegicus; assay: Toxicity in rat by irwin assay relative to control; type: organism-based; details: in vivo
[7] = Drug excretion in dog bile assessed as (5S)-N-[5-Chloro-2-(1H-tetrazol-1-yl)benzyl]-1-[(2R)-2-(4-fluorophenyl)-2-hydroxyacetyl]-4,5-dihydro-1H-pyrazole-5-carboxamide level; type: ADME, tissue-based, Canis lupus familiaris; details: in vivo
[8] = Drug metabolism in rat urine; type: ADME, tissue-based
[9] = Drug excretion in human urine; type: ADME, tissue-based
[10] = Drug excretion in rat urine assessed as compound unchanged; type: ADME, tissue-based; details: read-out: Drug excretion
Rattus norvegicus [11] = assay: Oral bioavailability in rat assessed as (5S)-N-[5-Chloro-2-(1H-tetrazol-1-yl)benzyl]-1-[(2R)-2-(4-fluorophenyl)-2-hydroxyacetyl]-4,5-dihydro-1H-pyrazole-5-carboxamide level; type: ADME, organism-based; details: in vivo
[12] = Drug metabolism in dog urine; type: ADME, tissue-based, Canis lupus familiaris
Rattus norvegicus [13] = assay: Bioavailability in rat dosed via colon route assessed as (5S)-N-[5-Chloro-2-(1H-tetrazol-1-yl)benzyl]-1-[(2R)-2-(4-fluorophenyl)-2-hydroxyacetyl]-4,5-dihydro-1H-pyrazole-5-carboxamide level; type: ADME, organism-based; details: in vivo, other
Cavia porcellus = organism: Cavia porcellus; assay: Cardiotoxicity in guinea pig by cardiac electrophysiology assay relative to control; type: toxicity, organism-based, Heart; details: in vivo
Canis familiaris = assay: Oral bioavailability in dog assessed as (5S)-N-[5-Chloro-2-(1H-tetrazol-1-yl)benzyl]-1-[(2R)-2-(4-fluorophenyl)-2-hydroxyacetyl]-4,5-dihydro-1H-pyrazole-5-carboxamide level; type: ADME, organism-based, Canis lupus familiaris; details: in vivo
Homo sapiens [14] = assay: Toxicity in po dosed human; type: organism-based; details: in vivo
Mus musculus = organism: Mus musculus; assay: Cardiotoxicity in mouse by electrophysiology assay relative to control; type: toxicity, organism-based; details: in vivo
Rattus norvegicus [15] = organism: Rattus norvegicus; assay: Toxicity in rat arterial thrombosis model assessed as increase in bleeding time; type: organism-based; details: in vivo
Homo sapiens [16] = assay: Oral bioavailability in human; type: ADME, organism-based; details: in vivo

O=C(NCc1cc(Cl)ccc1-n1cnnn1)[C@@H]1CC=NN1C(=O)[C@H](O)c1ccccc1
bioavailability [1]: 60%
solubility kinetic [2]: 98 µM (≈ 43.1 µg/mL)

CCC(=O)O[C@@H](C(=O)N1N=CC[C@H]1C(=O)NCc1cc(Cl)ccc1-n1cnnn1)c1ccc(F)cc1 [AZD-8165]
Drug excretion [3]: metabolite_notdetected
dose excreted [4]: 18%
fold change (FC) (Rattus norvegicus [5]): > 40
fold change (FC) (Rattus norvegicus [6]): > 24
Drug excretion [7]: metabolite_notdetected
Drug metabolism [8]: metabolite_detected
Drug excretion [9]: metabolite_notdetected
dose excreted [10]: 66%
F (Rattus norvegicus [11]): 64%
solubility kinetic [2]: 2.5 µM (≈ 1.28 µg/mL)
Drug metabolism [12]: metabolite_detected
F (Rattus norvegicus [13]): 30%
fold change (FC) (Cavia porcellus): > 40
F (Canis familiaris): 52%
MTD (Homo sapiens [14]): 2.5 mg
fold change (FC) (Mus musculus): > 40

CC(C)(C)[C@@H](O)C(=O)N1C[C@@H]2C[C@@H]2[C@H]1C(=O)NCc1cc(Cl)ccc1-n1cnnn1
bioavailability [1]: 57%
solubility kinetic [2]: 97 µM (≈ 42 µg/mL)

O=C(NCc1cc(Cl)ccc1-n1cnnn1)[C@@H]1CC=NN1C(=O)[C@H](O)c1ccc(F)cc1
fold change (FC) (Rattus norvegicus [5]): > 40
bioavailability [1]: 75%
fold change (FC) (Rattus norvegicus [6]): > 24
fold change (FC) (Rattus norvegicus [15]): 2
solubility kinetic [2]: 95 µM (≈ 43.5 µg/mL)
fold change (FC) (Cavia porcellus): > 40
fold change (FC) (Mus musculus): > 40

CC(=O)O[C@@H](C(=O)N1N=CC[C@H]1C(=O)NCc1cc(Cl)ccc1-n1cnnn1)c1ccc(F)cc1
solubility kinetic [2]: 87.5 µM (≈ 43.7 µg/mL)

CCCC(=O)O[C@@H](C(=O)N1N=CC[C@H]1C(=O)NCc1cc(Cl)ccc1-n1cnnn1)c1ccc(F)cc1
solubility kinetic [2]: < 1 µM

CCCCC(=O)O[C@@H](C(=O)N1N=CC[C@H]1C(=O)NCc1cc(Cl)ccc1-n1cnnn1)c1ccc(F)cc1
solubility kinetic [2]: 20.5 µM (≈ 11.1 µg/mL)

CCOC(=O)CN[C@@H](C(=O)N1CC[C@H]1C(=O)NCc1ccc(/C(N)=N\O)cc1)C1CCCCC1 [XIMELAGATRAN]
F (Homo sapiens [16]): 20%

CCCC[C@@H](O)C(=O)N1N=CC[C@H]1C(=O)NCc1cc(Cl)ccc1-n1cnnn1
bioavailability [1]: 70%
solubility kinetic [2]: 59 µM (≈ 24.8 µg/mL)

O=C(NCc1cc(Cl)ccc1-n1cnnn1)[C@@H]1C[C@@H]2C[C@@H]2N1C(=O)[C@H](O)c1ccccc1
bioavailability [1]: 63%
solubility kinetic [2]: 97 µM (≈ 43.9 µg/mL)

O=C(NCc1cc(Cl)ccc1-n1cnnn1)[C@@H]1C[C@H]2C[C@H]2N1C(=O)[C@H](O)c1ccccc1
bioavailability [1]: 86%
solubility kinetic [2]: 100 µM (≈ 45.3 µg/mL)
